Test results published in ChEMBL document CHEMBL1201862, “PubChem BioAssay data set” (2004).
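1) Cells in 96-well plates. 2) Compound, 48 h, 5 concentrations. 3) Linear interpolation between surrounding doses. 4) Unreached endpoint = highest concentration. Here, GI50 denotes the concentration required for 50% inhibition of growth.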 Calls of active or inactive are those of the source. Cut-off read from the data, not from the text of the source: active = GI50 up to about 1.1 µM and inactive = higher.

Assays:
Test in all cases: inhibition of tumour cell growth, NCI panel, 48 h
786-0 = test system: 786-0
A498 = test system: A498
A549 = test system: A549
ACHN = test system: ACHN
CCRF-CEM = test system: CCRF-CEM
DU-145 = test system: DU-145
HCT-116 = test system: HCT-116
HL-60 = test system: HL-60
HT-29 = test system: HT-29
KM12 = test system: KM12
LOX IMVI = test system: LOX IMVI
MOLT-4 = test system: MOLT-4
Malme-3M = test system: Malme-3M
NCI-H226 = test system: NCI-H226
NCI-H460 = test system: NCI-H460
OVCAR-4 = test system: OVCAR-4
PC-3 = test system: PC-3
SF-295 = test system: SF-295
SK-MEL-2 = test system: SK-MEL-2
UACC-62 = test system: UACC-62

Row | Compound | GI50 (786-0) | GI50 (A498) | GI50 (A549) | GI50 (ACHN) | GI50 (CCRF-CEM) | GI50 (DU-145) | GI50 (HCT-116) | GI50 (HL-60) | GI50 (HT-29) | GI50 (KM12) | GI50 (LOX IMVI) | GI50 (MOLT-4) | GI50 (Malme-3M) | GI50 (NCI-H226) | GI50 (NCI-H460) | GI50 (OVCAR-4) | GI50 (PC-3) | GI50 (SF-295) | GI50 (SK-MEL-2) | GI50 (UACC-62)
1 | Clc1ccc(Nc2nnc(CNc3ccc(-c4nnc(Nc5ccc(Cl)cc5)o4)cc3)o2)cc1 | 8 µM (inactive) | 14.9 µM (inactive) | 13.6 µM (inactive) | 17.1 µM (inactive) | 7.13 µM (inactive) | 12.7 µM (inactive) | 12.2 µM (inactive) | 2.63 µM (inactive) | 12.2 µM (inactive) | 8.36 µM (inactive) | 6.95 µM (inactive) | 6.35 µM (inactive) | 14.7 µM (inactive) | 20.9 µM (inactive) | 14.9 µM (inactive) | 17.4 µM (inactive) | 11.8 µM (inactive) | 19.9 µM (inactive) | 18.3 µM (inactive) | 13.6 µM (inactive)
2 | Clc1ccccc1-c1nnc2c(-c3ccccc3)nc3ccccc3n12 | 40.9 µM (inactive) | > 100 µM (inactive) | > 100 µM (inactive) | > 100 µM (inactive) | 26 µM (inactive) | > 100 µM (inactive) | > 100 µM (inactive) | 54.5 µM (inactive) | 47.3 µM (inactive) | > 100 µM (inactive) | > 100 µM (inactive) | 42.6 µM (inactive) | 61.7 µM (inactive) | > 100 µM (inactive) | > 100 µM (inactive) | > 100 µM (inactive) | > 100 µM (inactive) |  | > 100 µM (inactive) | > 100 µM (inactive)
3 | CC1(C)CC(Nc2ccc(Nc3ccccc3)cc2)CC(C)(C)N1 | 21.1 µM (inactive) | 28.2 µM (inactive) | 45.9 µM (inactive) | 13.5 µM (inactive) | 6.41 µM (inactive) | 23 µM (inactive) | 35.6 µM (inactive) | 6.97 µM (inactive) | 21.3 µM (inactive) | 44.1 µM (inactive) | 24.6 µM (inactive) | 18.1 µM (inactive) | 17.9 µM (inactive) | 17.1 µM (inactive) | 27.9 µM (inactive) | 34.2 µM (inactive) | 11.5 µM (inactive) | 68.2 µM (inactive) | 23.8 µM (inactive) | 16.1 µM (inactive)
4 | COc1ccc(-c2c(N)n(-c3cc(OC)cc(OC)c3)c(=O)c3cc([N+](=O)[O-])ccc23)cc1 | > 49.5 µM (inactive) | 28 µM (inactive) | > 100 µM (inactive) | > 100 µM (inactive) | > 77.8 µM (inactive) | > 100 µM (inactive) | 21.9 µM (inactive) | 2.47 µM (inactive) | > 53.2 µM (inactive) | > 54.5 µM (inactive) | 24.7 µM (inactive) | > 60.7 µM (inactive) | > 100 µM (inactive) | > 36.1 µM (inactive) | > 100 µM (inactive) | 18.2 µM (inactive) | 31.3 µM (inactive) | > 100 µM (inactive) | > 100 µM (inactive) | 99.3 µM (inactive)
5 | CC1=NN(C(=O)c2ccncc2)C(=O)C1 | > 100 µM (inactive) | > 100 µM (inactive) | > 100 µM (inactive) | > 100 µM (inactive) | > 100 µM (inactive) | > 100 µM (inactive) | > 100 µM (inactive) | > 100 µM (inactive) | > 100 µM (inactive) | > 100 µM (inactive) | > 100 µM (inactive) | 89.9 µM (inactive) | > 100 µM (inactive) | > 100 µM (inactive) | > 100 µM (inactive) | > 100 µM (inactive) | > 100 µM (inactive) | > 100 µM (inactive) | > 100 µM (inactive) | > 100 µM (inactive)
6 | COc1ccc2nc3cc([N+](=O)[O-])ccc3c(NNc3ccc([N+](=O)[O-])cc3)c2c1 | 36.9 µM (inactive) | 0.0951 µM (active) | 7.18 µM (inactive) | 46.9 µM (inactive) | 30.8 µM (inactive) | 47.8 µM (inactive) | 5.69 µM (inactive) | 20.3 µM (inactive) | 7.46 µM (inactive) | 24.5 µM (inactive) | 61.1 µM (inactive) | 25.5 µM (inactive) | 30.1 µM (inactive) | 2.36 µM (inactive) | 3.16 µM (inactive) | 57.4 µM (inactive) | 22.4 µM (inactive) | 22 µM (inactive) | 27.6 µM (inactive) | 3.37 µM (inactive)
7 | O=S1(=O)c2cnccc2N=C(NCc2ccccc2)N1c1ccccc1 | > 100 µM (inactive) | > 100 µM (inactive) | > 100 µM (inactive) | 36.7 µM (inactive) | 41 µM (inactive) | 67.1 µM (inactive) | 73.8 µM (inactive) | 41.4 µM (inactive) | 81.1 µM (inactive) | > 100 µM (inactive) | > 100 µM (inactive) | 34.9 µM (inactive) | > 100 µM (inactive) | > 100 µM (inactive) | 49.7 µM (inactive) | > 100 µM (inactive) | 75.3 µM (inactive) | 89.1 µM (inactive) | 83.2 µM (inactive) | 46.7 µM (inactive)
8 | CCOC(=O)C(C)(C)Oc1ccc(Cl)cc1 [CLOFIBRATE] | 462 µM (inactive) | 297 µM (inactive) | 432 µM (inactive) | > 1000 µM (inactive) | 596 µM (inactive) | 935 µM (inactive) | 214 µM (inactive) | > 1000 µM (inactive) | 159 µM (inactive) | 324 µM (inactive) | 156 µM (inactive) | 161 µM (inactive) | 215 µM (inactive) | 188 µM (inactive) | 632 µM (inactive) | 322 µM (inactive) | 359 µM (inactive) | 319 µM (inactive) | 173 µM (inactive) | 514 µM (inactive)
9 | Oc1nnc(-c2ccc(F)cc2)cc1-c1ccccc1 | 45.7 µM (inactive) | 64.4 µM (inactive) | > 100 µM (inactive) | 57.9 µM (inactive) | > 100 µM (inactive) | 57.5 µM (inactive) | > 100 µM (inactive) | > 100 µM (inactive) | > 100 µM (inactive) | > 100 µM (inactive) | > 100 µM (inactive) | > 100 µM (inactive) | 97.5 µM (inactive) | > 100 µM (inactive) | 89.7 µM (inactive) | 38 µM (inactive) | 91.4 µM (inactive) | 40.4 µM (inactive) | 80.7 µM (inactive) | 76.2 µM (inactive)
10 | O=S(=O)(O)c1ccc(-c2nnc(-c3ccccn3)nc2-c2ccc(S(=O)(=O)O)o2)o1 | > 100 µM (inactive) | > 100 µM (inactive) | > 100 µM (inactive) | > 100 µM (inactive) |  | > 100 µM (inactive) | > 100 µM (inactive) | 0.329 µM (active) | > 100 µM (inactive) | > 100 µM (inactive) | > 100 µM (inactive) | > 100 µM (inactive) | > 100 µM (inactive) | > 100 µM (inactive) | > 100 µM (inactive) | > 100 µM (inactive) | > 100 µM (inactive) | > 100 µM (inactive) | > 100 µM (inactive) | > 100 µM (inactive)
11 | CN(Cc1cnc2nc(N)nc(N)c2n1)c1ccc(C(=O)NC2CCCCC2)cc1 | 11.6 µM (inactive) | 24.4 µM (inactive) |  | 23.3 µM (inactive) | 36.7 µM (inactive) | 37.6 µM (inactive) | 6.65 µM (inactive) | 23.7 µM (inactive) | 16.2 µM (inactive) | 26.9 µM (inactive) | 5.51 µM (inactive) | 34.7 µM (inactive) | 20.9 µM (inactive) | 23.1 µM (inactive) | 20.1 µM (inactive) |  | 7.64 µM (inactive) | 32.4 µM (inactive) | 35.5 µM (inactive) | 8.2 µM (inactive)
12 | CCN(CC)C1Oc2cc3c(cc2C(c2cccc(OC)c2OC)C1C)OCO3 (stereo not drawn) | 4.16 µM (inactive) | 5.81 µM (inactive) | 4.46 µM (inactive) | 3.22 µM (inactive) | 2.17 µM (inactive) | 3.23 µM (inactive) | 2.79 µM (inactive) | 1.88 µM (inactive) | 3.65 µM (inactive) | 4.9 µM (inactive) | 3.66 µM (inactive) | 4.01 µM (inactive) | 8.51 µM (inactive) | 2.05 µM (inactive) | 3.63 µM (inactive) |  | 4.03 µM (inactive) | 3.16 µM (inactive) | 6.07 µM (inactive) | 11.4 µM (inactive)
13 | COc1cc(NC(C)c2ccc3c(c2)OCCO3)cc(OC)c1OC (stereo not drawn) | 34.4 µM (inactive) | 77.1 µM (inactive) | 45 µM (inactive) | 70 µM (inactive) |  | 36.6 µM (inactive) | 30.3 µM (inactive) | 18.5 µM (inactive) | 33.7 µM (inactive) | 31.5 µM (inactive) | 46.2 µM (inactive) | 26.3 µM (inactive) | 19.1 µM (inactive) | 24.3 µM (inactive) | 31.6 µM (inactive) | 68.4 µM (inactive) | 44.9 µM (inactive) | 23.9 µM (inactive) | 23.2 µM (inactive) | 29.9 µM (inactive)
14 | Clc1ccc(Cc2nc3cc4ccccc4cc3[nH]2)cc1Cl | 27 µM (inactive) | 13.6 µM (inactive) | 16.4 µM (inactive) | 30.8 µM (inactive) | 37.9 µM (inactive) | 20.7 µM (inactive) | 20.1 µM (inactive) | 16.3 µM (inactive) | 10.2 µM (inactive) | 16.4 µM (inactive) | 14.5 µM (inactive) | 2.37 µM (inactive) | 16 µM (inactive) | 25.2 µM (inactive) | 6.97 µM (inactive) | 13 µM (inactive) | 13 µM (inactive) |  | 17.1 µM (inactive) | 14.2 µM (inactive)
